Our source for the IC50, IC90 and CC50 values is PubChem BioAssay AID1626 (SRMLSC, 2009).

Structures are written as SMILES.

This assay deals with M. tuberculosis H37Rv growth inhibition. Kind of assay: M. tuberculosis H37Rv growth inhibitors, H37Rv strain (AID 1626). The following applies: for IC90: measured here: IC90 against H37Rv; for CC50: measured here: Vero cell cytotoxicity.

As a reminder, the IC50 is the concentration needed to halve the response being measured. What is called IC90 is the point of the concentration-response curve where the effect stands at 90%. A low value points to greater potency. As usually defined, the CC50 is the concentration giving 50% cytotoxicity. A low value points to greater toxicity to the cells. With `CCc1ccc(/C=C/C(=O)C2C(=O)c3ccccc3C2=O)cc1`, the concentration for half-maximal inhibition (IC50) was 1.76 µM, the concentration for an effect of 90% (IC90) stood at 2.92 µM and the half-maximal cytotoxic concentration (CC50) was more than 40 µM.

Regarding `Nc1nc2ccccc2n1C(=O)c1ccccc1`, the IC50 is 21.9 µM, the concentration for an effect of 90% (IC90) is more than 100 µM and the half-maximal cytotoxic concentration (CC50) is more than 40 µM.

Take `O=C(Nc1ccc(-c2csc(Nc3cccc(C(F)(F)F)c3)n2)cc1)c1cc([N+](=O)[O-])cc(C(F)(F)F)c1`: the IC50 was 7.37 µM, the IC90 is more than 100 µM and the 50% cytotoxic concentration (CC50) turned out to be 20.2 µM.

Take `CCc1nnc(NC(=O)c2cccc(C(=O)Nc3nnc(CC)s3)n2)s1`: the IC90 worked out at 1.09 µM and the CC50 turned out to be 3.62 µM.

Take `CCc1cccc2c1NC(=O)C21N2CCCC2C(C(=O)c2ccc3ccccc3c2)C12C(=O)Nc1ccccc12` (centres undefined): the half-inhibitory concentration (IC50) was 23.8 µM, the 90% effect concentration (IC90) is more than 100 µM and the CC50 was more than 40 µM.

For the compound `Nc1[nH]ncc1-c1ccc(Cl)cc1`, the IC50 is 21.6 µM and the IC90 is more than 100 µM.

On to `O=C(COc1ccc(Cl)cc1)Nc1ccc(Cc2ccncc2)cc1`, for which the IC50 was 5.95 µM and the IC90 was found to be 12.4 µM.

In the case of `O=C1CC(=C(c2ccccc2)c2ccccc2)C(=O)N1CCCCN1CCN(c2cccc(Cl)c2)CC1`, the 50% inhibitory concentration (IC50) was 4.47 µM, the 90% effect concentration (IC90) stood at 6.35 µM and the half-maximal cytotoxic concentration (CC50) is more than 40 µM.

In the case of `CC(NC(=O)c1ccc(Br)cc1)c1ccc2c(c1)CCCC2` (centres undefined), the concentration for half-maximal inhibition (IC50) is 15.4 µM and the concentration for an effect of 90% (IC90) was more than 100 µM.

On to `CC(=O)N1CCN(c2cc3c(cc2F)c(=O)c(C(=O)O)cn3C2CC2)CC1`, for which the IC50 is 0.949 µM and the IC90 was 1.56 µM.

For the compound `CC(C)(C)C(=O)/C=c1\s/c(=C\c2ccc(-c3ccc([N+](=O)[O-])cc3)o2)c(=O)n1CC(=O)NC(N)=O`, the 90% effect concentration (IC90) was more than 100 µM and the cytotoxic concentration (CC50) was more than 40 µM.

For `Cc1cnc(NC(=O)c2cc3c(C)nn(-c4ccccc4)c3s2)s1`, the half-inhibitory concentration (IC50) was 61 µM, the IC90 was more than 100 µM and the CC50 is more than 40 µM.

With `Cc1ccc(C(=O)N/C(=C\c2ccc(-c3ccc(Br)cc3)o2)C(=O)NCCCN(C)C)cc1`, the IC50 is 15.5 µM, the concentration for an effect of 90% (IC90) turned out to be 18.2 µM and the half-maximal cytotoxic concentration (CC50) was 6.45 µM.

As to `CCCC(=O)N1CCN(c2ccc(NC(=O)c3ccc([N+](=O)[O-])o3)cc2)CC1`, the IC50 is 1 µM, the concentration for an effect of 90% (IC90) was 2.22 µM and the 50% cytotoxic concentration (CC50) was found to be 3.1 µM.

For `Cc1nc2c(-c3ccc(Cl)cc3)c(C)[nH]n2c(=O)c1Cc1ccccc1`, the IC50 is 1.98 µM, the concentration for an effect of 90% (IC90) was 9.69 µM and the CC50 turned out to be 4.04 µM.

Regarding `CCCCCCCCCCn1c2c(c(=N)c3c1CCC3)CCC2`, the IC50 is 2.42 µM, the 90% effect concentration (IC90) was 3.59 µM and the CC50 was found to be 6.09 µM.

With `O=C(CSc1nc2ccccc2[nH]1)N1c2ccccc2Sc2ccccc21`, the IC50 was 17.4 µM, the IC90 is more than 100 µM and the cytotoxic concentration (CC50) was more than 40 µM.

On to `COc1cc(CNCc2ccccn2)ccc1OCc1ccc(Cl)cc1Cl`, for which the IC50 was 6.04 µM, the IC90 was 9.96 µM and the CC50 was more than 40 µM.

On to `COc1ccc(N=Cc2ccc[nH]2)cc1`, for which the 90% effect concentration (IC90) was more than 100 µM.

In the case of `O=C(Nc1nc2ccccc2[nH]1)C12CC3CC(CC(C3)C1)C2`, the concentration for half-maximal inhibition (IC50) was 2.25 µM, the concentration for an effect of 90% (IC90) turned out to be 13.1 µM and the CC50 is more than 40 µM.

On to `CC1CCCC(NCC(O)COC(c2ccc(F)cc2)c2ccc(F)cc2)C1C` (centres undefined), for which the IC50 was 5.69 µM, the IC90 was found to be 6.42 µM and the CC50 was 24.3 µM.

Turning to `COc1ccc(CCNc2nc(N3CCCCC3)nc(N3CCCCC3)n2)cc1OC`, the IC50 was 12.4 µM, the IC90 stood at 18.8 µM and the CC50 is more than 40 µM.

For `Cc1ccc(C(=O)Nc2nnc(-c3ccncc3)o2)cc1`, the 50% inhibitory concentration (IC50) was 5.94 µM, the IC90 is 6.95 µM and the CC50 is more than 40 µM.

As to `CSc1ccc(NC(=O)N2CCN(c3nc4ccccc4s3)CC2)cc1`, the IC50 is 9.18 µM, the 90% effect concentration (IC90) is more than 100 µM and the 50% cytotoxic concentration (CC50) was more than 40 µM.

The compound `COc1ccc(NC(=O)c2ccc(-c3ccc([N+](=O)[O-])cc3)o2)cc1` displayed a 90% effect concentration (IC90) of more than 100 µM.

`COc1c(C)cc(C(=O)C2CCCN(Cc3cccc(C)n3)C2)cc1C` (centres undefined): the concentration for half-maximal inhibition (IC50) was 18.6 µM, the 90% effect concentration (IC90) is more than 100 µM and the cytotoxic concentration (CC50) was more than 40 µM.

In the case of `Nc1ccc2c(c1)Cc1ccccc1-2`, the IC50 was 18.3 µM and the 90% effect concentration (IC90) is more than 100 µM.

Take `COc1ccc(-c2nn(-c3ccccc3)cc2C(=O)Nc2nccs2)cc1`: the IC90 was more than 100 µM and the CC50 was more than 40 µM.

On to `CCOC(=O)Cn1c2c(c(-c3ccccc3OC)cc1=O)CCCC2`, for which the IC50 is 21.1 µM and the 90% effect concentration (IC90) was more than 100 µM.

In the case of `O=C(/C=C/c1ccc(Cl)cc1Cl)c1cccnc1`, the IC50 is 2.97 µM, the 90% effect concentration (IC90) worked out at 3.35 µM and the cytotoxic concentration (CC50) came out at 30.6 µM.

On to `CCOC(=O)C1=C(c2ccccc2)N=c2s/c(=C\c3ccc(O)cc3)c(=O)n2C1c1cccs1` (centres undefined), for which the IC50 was 8.75 µM, the 90% effect concentration (IC90) is more than 100 µM and the CC50 is more than 40 µM.

Consider `COC(=O)c1ccc(NC(=O)CSC2=NCCN2)cc1`, for which the IC90 was more than 100 µM.

In turn, `Cc1ccccc1NC(=O)Nc1ccc(C(F)(F)F)cc1` registered an IC90 of more than 100 µM and a cytotoxic concentration (CC50) of 23.5 µM.

As to `Cc1ccc(-c2ccc(/C=C/C(=O)c3ccccc3)o2)cc1`, the half-maximal inhibitory concentration (IC50) is 19.6 µM, the IC90 is more than 100 µM and the CC50 amounted to 24.7 µM.

With `CCCN(CCC)C(=O)c1cc([N+](=O)[O-])cc2c1-c1ccc([N+](=O)[O-])cc1C2=C(C#N)C#N`, the IC50 was 8 µM, the 90% effect concentration (IC90) came to 9.91 µM and the CC50 turned out to be 33.6 µM.

In the case of `Cc1cc(C)n(-c2nc(SCC(=O)O)c3c4c(sc3n2)COC(C)(C)C4)n1`, the IC50 is 9.72 µM, the IC90 was more than 100 µM and the CC50 was more than 40 µM.

With `O=C(Nc1nnc(-c2ccccn2)o1)c1cccc(Cl)c1`, the IC50 is 5.25 µM, the IC90 is more than 100 µM and the CC50 is more than 40 µM.

Consider `CC(C)Cn1c(N)c(C(=O)COC(=O)c2cnc(Cl)c(Cl)c2)c(=O)n(C)c1=O`, for which the concentration for half-maximal inhibition (IC50) was 8.01 µM, the 90% effect concentration (IC90) is 20.7 µM and the CC50 is more than 40 µM.

As for `Cc1nc(SCc2ccc(F)cc2)c2oc3ccccc3c2n1`, the half-inhibitory concentration (IC50) was less than 0.195 µM and the IC90 was more than 100 µM.

In the case of `O=C1CCC(=O)N1CNc1ccc(Oc2ccccc2)cc1`, the half-maximal inhibitory concentration (IC50) was 2.58 µM and the IC90 is more than 100 µM.

Consider `O=C(/C=C/c1cn(CC(O)CN2CCCCCC2)c2ccccc12)c1cccs1` (centres undefined), for which the half-maximal inhibitory concentration (IC50) was 0.993 µM, the IC90 came to 1.95 µM and the CC50 was determined as 20 µM.

As for `CCCOc1ccc(NCC(=O)Nc2ccc(C)cc2C)cc1`, the concentration for half-maximal inhibition (IC50) was less than 0.391 µM and the 90% effect concentration (IC90) is more than 100 µM.

`CC(=O)Nc1ccc(Nc2cc(C)nc3c(-c4ccccc4)c(C)nn23)cc1` gave an IC90 of more than 100 µM and a CC50 of more than 40 µM.

As for `CCOC(=O)CSc1ncc(-c2cccc(Cl)c2)cn1`, the IC50 is 1.35 µM and the concentration for an effect of 90% (IC90) turned out to be 3.11 µM.

For the compound `O=C(O)c1[nH]c(=O)[nH]c(=O)c1F`, the 50% inhibitory concentration (IC50) was 6.62 µM, the IC90 came to 18.4 µM and the CC50 is more than 40 µM.
